“Also recorded” adds a separate entry of the source.
Legend:
QCM VOC binding, nonanal = conditions: wet N2 gas stream
Method: (§1) VOC binding validation by QCM utilized chimeric molecular constructs tethered to a substrate in a VOC-doped gas stream. Gold QCM substrates (Qsense, Phoenix, AZ, USA) were coated with 10 nm thick carbon film by evaporation (SPI, West Chester, PA, USA). 10 μL of 1 μM aqueous peptide was deposited and incubated for 1 hour at room temperature, and then the sample was dried in a nitrogen gas stream. A KSV model Z500 QCM (Qsense, Phoenix, AZ, USA) was used to measure VOC binding to bare carbon (control), and peptide-coated substrates. Humidified nitrogen was measured as the baseline, then VOC was introduced by bubbling nitrogen through the VOC/deionized water mixture. The difference in resonant frequency between wet nitrogen and VOC mixture was reported, in which lower frequency indicated an increase in mass on the substrate due to VOC molecules binding to the surface.
(§2) Each of the six synthesized peptides was then tested against eight VOCs. The VOCs were chosen to include the targeted VOCs for all synthesized chimeric molecular constructs, plus ethanol as a common non-target. […] VOC adsorption caused damping of the QCM sensor—therefore, a higher affinity surface would produce a greater reduction in resonant frequency upon exposure to the gas stream. The concentration of the target VOC for each peptide was 20 μM, 10× lower than non-targets at 200 μM.

[1] = SPR adsorption of peptide onto carbon substrate; format: binding
Method: (§3) SPR (GE Healthcare, Biacore T200) was performed to validate specific adsorption of peptides onto a carbon substrate. Bare gold and carbon- and poly-L-lysine-functionalized substrates were used. Substrate fabrication used e-beam evaporation (CHA Industries, Solution Process Development System) of titanium (3-nm thick layer) then gold (47-nm thick layer) onto 1-cm^2 optical quality glass. A 20-nm thick carbon layer was sputtered (Kurt J. Lesker Company, Lab 18 Sputter System) onto the fabricated gold substrates at a rate of 10 Å per minute, and poly-L-lysine coatings were drop-cast incubated with 0.1% v/v poly-L-lysine for 30 minutes and rinsed with di-H2O, then air dried. A single-cycle kinetics curve was generated by sequential injection of MmedPep1-GBP peptide at 2-fold increasing concentrations up to 500 nM in buffer (100 mM KCl, 10 mM K+ phosphate). An injection flow rate of 30 μL/min and a temperature of 25° C. were used. Response values were plotted and fitted to a Langmuir isotherm curve by minimizing the sum of square differences between the dataset and the isotherm model.

[2] = SPR adsorption of peptide onto bare gold; format: binding; conditions: 500 nM peptide concentration
Method: as §3

[3] = SPR adsorption of peptide onto poly-L-lysine substrate; format: binding; conditions: 500 nM peptide concentration
Method: as §3

[4] = Peptide-sensitized CNT-FET sensor response to ethyl butyrate; conditions: gate voltage −1 V
Method: Sensors were placed in a box chamber that allowed gas flow into and out of the enclosure while allowing micromanipulator probes to be positioned on the sensor chip contact pads. Gas flow impinged directly above the sensor chip with a continuous flow rate of 50-60 SCCM as controlled by a flowmeter (Matheson, model FM-1050, Montgomeryville, PA, USA).
After placing the sensor chip into the gas chamber, a nitrogen purge of 2-3 minutes at 4 to 5 PSI in the gas line was performed in order to flush out ambient air trapped within the box enclosure. Transfer curve measurements were performed to determine sensor characteristics. The chip was then equilibrated in humidified N2 (“wet N2”) for 30-60 min by flowing in nitrogen gas that has passed through a gas bubbler filled with water. Sensor measurements were taken at this point to establish sensor baseline signal.
For peptide sensitization of the CNT sensing channel, the chip was removed from the gas chamber and dropcasted with 1.5 μL 100 μM peptide diluted in di-H2O. Peptide solution was pipetted directly onto the CNT sensing regions of the multiplexed chip and incubated for 60 minutes in a humidified environment to prevent evaporation. Devices were then spin dried by centrifugal force at 2,000 g. Sensor measurements were taken again after replacing the chip back into the gas chamber, purging with N2, and equilibrating in wet N2 for 30-60 min. Finally, the peptide-functionalized chip was exposed to humidified ethyl butyrate for 60-90 min before sensor measurements were taken.
Transfer curves were generated for each of the following experimental conditions: 1) Bare CNT sensors (i.e., non-functionalized) under non-humidified N2 gas exposure; 2) non-functionalized sensors under humidified N2 gas exposure; 3) peptide-functionalized sensors under humidified N2 gas exposure; and 4) peptide-functionalized sensors exposed to ethyl butyrate in humidified N2 carrier gas. Signal response was based on normalized source-drain current values obtained from the reverse sweep of the transfer curve at a gate potential of −1 V (Vg=−1 V), which was determined to be within the subthreshold voltage region for ethyl butyrate-exposed, peptide-functionalized sensors. […] Signal responses were normalized to their corresponding width-to-length CNT sensing channel dimensions. Mean signal response for each condition was calculated from a total of 9 to 13 technical replicates measured across two independent experiments (N=2).
Two VOC and C-binding peptides were used in order to functionalize CNT-FET devices and test their sensitivity to ethyl butyrate:MmedPep1-GrBP and BhorPep1-GrBP, which were predicted to bind to ethyl butyrate and a range of aldehydes and alkanes, respectively. […] However, the effect was reversed under ethyl butyrate exposure for CNT channels functionalized with MmedPep1-GrBP (FIG. 7B). Specifically, upon exposure to 378 mM ethyl butyrate solution (5% v/v in H2O), MmedPep1-GrBP-sensitized CNT-FET sensors measured 1.21±0.43 μA of current, compared to 0.20±0.9 μA for the aldehyde-sensitive BhorPep1-GrBP (p<0.001), as shown in FIG. 7C.

QCM VOC binding, octanal = conditions: wet N2 gas stream
Method: as §1, §2

[5] = QCM VOC binding, ethyl butyrate; conditions: wet N2 gas stream
Method: as §1, §2

QCM VOC binding, ethanol = conditions: wet N2 gas stream
Method: as §1, §2

[6] = 378 mM ethyl butyrate solution (5% v/v in H2O), Vsd=−5 V

## SHFVGGGYSSY [HcunPep1-GrBP, chimeric construct from HcunPBP3; target nonanal]
QCM VOC binding, nonanal
  nonanal affinity (QCM): notable

## VGARNGGGYSSY [MmedPep1-GrBP, target ethyl butyrate]
[1]; 500 nM peptide concentration, carbon-coated gold surface
  SPR signal: 158.4±44.1 RU
[1]; SPR
  substrate preference of adsorption (carbon vs gold, poly-L-lysine): specific preference for the carbon substrate; also recorded: specific absorption
[2]
  SPR signal: 18.4±1.7 RU
[3]
  SPR signal: 6.5±2.9 RU
[4]; [6]
  source-drain current upon ethyl butyrate exposure: 1.21±0.43 μA
[4]; Vds=−3 V
  source-drain current upon ethyl butyrate exposure: 0.542±0.721 μA
[4]
  CNT-FET signal response to ethyl butyrate exposure (in words): robust signal response

## GIVLLATYEKIISIYFIFFGGGYSSY [BhorPep1-GrBP, chimeric construct from BhorOBPm2; targets aldehydes and alkanes]
QCM VOC binding, octanal
  octanal affinity (QCM): notable
[4]; [6]
  source-drain current upon ethyl butyrate exposure: 0.20±0.9 μA
[4]; Vds=−3 V
  source-drain current upon ethyl butyrate exposure: 0.038±0.020 μA
[4]
  CNT-FET signal response to ethyl butyrate exposure (in words): respond weakly

## VGGGAGRGNGGGYSSY [MmedPep1s-GrBP, glycine spacer variant of MmedPep1-GrBP; target ethyl butyrate]
[5]
  ethyl butyrate binding preference (QCM): strongly selective
QCM VOC binding, ethanol
  affinity for ethanol (QCM): reduced affinity

— patent publication US20250327770A1, “Protein-Derived Peptide Multiplexes for Biomimetic Detection of VOC Profiles” (University of Washington, priority 2022, published 2025)
